Assay results as given in patent publication US20230114728A1 (Venatorx Pharmaceuticals, Inc., priority 2019, published 2023).
In brackets after ≈: the same amount, converted by molar mass.

What was measured:
N. gonorrhoeae PBP2 = molecular target: T1, N. gonorrhoeae PBP2 (Neisseria gonorrhoeae, UniProt P08149); experiment: Bocillin-FL fluorescence polarization competition binding assay, N. gonorrhoeae PBP2; details: fluorescence polarization competition binding assay using Bocillin-FL; read-out: N. gonorrhoeae PBP2 Potency
T1 construct: made in house
T1 sequence (P08149 whole entry): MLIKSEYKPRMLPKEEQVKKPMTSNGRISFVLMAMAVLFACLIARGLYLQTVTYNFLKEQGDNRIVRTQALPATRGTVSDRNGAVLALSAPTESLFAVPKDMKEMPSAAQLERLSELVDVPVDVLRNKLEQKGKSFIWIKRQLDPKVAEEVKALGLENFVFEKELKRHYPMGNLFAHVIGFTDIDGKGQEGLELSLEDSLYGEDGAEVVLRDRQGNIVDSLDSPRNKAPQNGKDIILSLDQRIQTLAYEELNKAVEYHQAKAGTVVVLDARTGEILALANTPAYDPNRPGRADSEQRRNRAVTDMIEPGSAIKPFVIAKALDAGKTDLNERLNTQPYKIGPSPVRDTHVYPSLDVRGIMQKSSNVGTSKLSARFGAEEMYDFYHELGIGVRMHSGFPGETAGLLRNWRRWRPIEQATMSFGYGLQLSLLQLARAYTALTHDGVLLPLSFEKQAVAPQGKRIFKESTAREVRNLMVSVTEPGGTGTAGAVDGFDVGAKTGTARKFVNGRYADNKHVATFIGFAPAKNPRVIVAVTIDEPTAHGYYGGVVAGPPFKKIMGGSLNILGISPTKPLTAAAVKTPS
From the text: Example I: Experimental Method for Penicillin-Binding Protein Binding Assays with Bocillin-FL Via Fluorescence Polarization
To determine the ability of boronic acid-based test PBP inhibitors to bind Penicillin Binding Proteins (PBPs), Bocillin-FL (fluorescently-labeled penicillin V; ThermoFisher Scientific) was used in a fluorescence polarization (FP) competition binding assay to assess inhibitor binding to PBP2, PBP3 or PBP4 from Escherichia coli (K12), PBP3 from Pseudomonas aeruginosa (PA01), PBP1a, PBP2 and PBP3 from Acinetobacter baumannii (ATCC 19606), and PBP2 from Neiserria gonorrheae (FA19). PBPs were cloned and purified as described previously (E. coli PBPs, King, D. T, et al., ACS Infectious Diseases 2015, 1, 175-184; P. aeruginosa PBP3, Han et. al., PNAS 2010, 107 (51), 22002-22007; A. baumannii PBPs, Penwell et. al., Antimicrob. Agents Chemother. 2015, 59 (3), 1680-1689; N. gonorrhoeae PBP2, Singh et. al., J Biol. Chem. 2019, 294 (38), 14020-14032). To establish assay conditions for competition binding, enzyme titration/saturation binding experiments were initially performed. Bocillin-FL was prepared at 0.2 μM in a buffer comprised of 50 mM Hepes (pH 8.0), 300 mM NaCl and 5% (v/v) glycerol for reactions with E. coli, P. aeruginosa and N. gonorrhoeae PBPs, and 25 mM Tris (pH 8.0), 200 mM NaCl and 10% (v/v) glycerol and 0.005% (v/v) Tween 20 for reactions with A. baumannii PBPs. Saturation binding was performed by mixing 40 μl of PBP solutions ranging in concentrations from 0-24 μM with 40 μl of the 0.2 μM Bocillin-FL solution, in individual wells of a black 384-well microplate. FP was measured immediately upon mixing (Excitation, 490 nm; Emission, 520 nm; g-factor, 0.96), using a Cytation3 (BioTek) microplate reader and measured continuously for up to 120 minutes. […] The competition binding assay (80 μl final volume) was validated using beta-lactams and PBPs at final concentrations of: 1.5 μM, E. coli PBP3; 0.75 μM, P. aeruginosa PBP3; 1 μM A. baumannii PBP1a; 2.5 μM A. baumannii PBP2; 0.2 μM A. baumannii PBP3; and […] N. gonorrhoeae PBP2. Bocillin-FL was at 0.1 μM (0.05 μM with A. baumannii PBP1a) and beta-lactam concentrations ranged from 0-1000 μM. […] Bocillin-FL was added and the FP immediately measured for up to 60 minutes (90 minutes for E. coli PBP2). […] The beta-lactam potency was reported as the concentration of beta-lactam required to reduce the amount of PBP bound-Bocillin-FL by 50% (EC50). […] Binding assays for boronic acid PBP inhibitors were performed in an identical fashion for the respective PBPs

[1] = test system: A. baumannii CDC-0045 producing TEM-1D, OXA-23, and OXA-69; experiment: Broth microdilution MIC in iron-depleted CAMHB (IDM); format: cell-based; details: Acinetobacter baumannii, read-out: Minimum Inhibitory Concentration, CDC-0045
[2] = test system: A. baumannii CDC-0036 OXA-65, and OXA-24; experiment: as above; format: cell-based; details: Acinetobacter baumannii, read-out: Minimum Inhibitory Concentration, CDC-0036
Protocol: (§1) Example IV: In Vitro Antibacterial Assays in Iron-Depleted Cation-Adjusted Mueller-Hinton Broth
(§2) To determine the ability of test compounds to inhibit the growth bacterial strains under conditions of iron-depletion, classic cell based broth microdilution minimum inhibitory concentration (MIC) assays were employed. MIC assays are performed according to CLSI methods except where otherwise noted (CLSI, 2018 and CLSI, 2019). The reference type strain E. coli ATCC 25922 was used to determine the ability of the PBP inhibitors to inhibit the growth of Enterobacteriaceae. Wild-type P. aeruginosa ATCC 27853, A. baumannii ATCC 17978 and A. baumannii ATCC 19606, along with the hyper-permeable P. aeruginosa ATCC 35151, an engineered efflux pump-compromised strain of P. aeruginosa (ΔmexAB-oprM), and an engineered efflux-pump compromised strain of A. baumannii IL123 (ABΔ3-ARAEcPore) were used to determine the ability of PBP inhibitors to penetrate the outer membrane of P. aeruginosa and A. baumannii and assess antibacterial activity against these important gram-negative organisms.
(§3) Briefly, cryo-preserved bacterial cultures of challenge strains are streaked for isolation on appropriate agar medium, in this case cation-adjusted Mueller Hinton agar. Following incubation to allow growth of the colonies, plates are sealed with parafilm and stored refrigerated for up to two weeks. For preparation of assay inoculum and to ensure low variability, at least 5 colonies are picked from the agar plates with an inoculating loop and aseptically transferred to a culture tube containing 3 mL of iron-depleted cation-adjusted Mueller Hinton broth (IDM)—see below for IDM preparation. The broth culture is grown for 3-5 hours at 37° C. with shaking at 200 rpm. Meanwhile, 2-fold serial dilutions of test compounds are conducted in a 96-well plate with a final volume of 75 μL per well at 2-fold the final desired concentration. After the dilution plates are set up the growing cultures are then diluted in a cuvette containing IDM and the optical density is measured at 600 nm. The inoculum is diluted such that 75 μL of this culture in IDM results in a starting bacterial concentration of 2-8×10^5 CFU/mL when added to the dilution plates. The plates are incubated for 16-20 hours for Enterobacteriaceae and Pseudomonas and 20-24 hours for Acinetobacter at 37° C. The MIC values are read visually as the lowest concentration well with no bacterial growth.
(§4) Method for Iron-Depleted Cation-Adjusted Mueller Hinton Broth (IDM) Preparation:
(§5) • Prepare cation-adjusted Mueller Hinton broth as per the manufacturer's recommendations and autoclave. • Add 100 g/L Chelex 100 resin, cover with foil and incubate with stirring for 2 hours • Remove Chelex 100 resin by filtration with 0.45 μm filter flask • Add the following back to the medium: • CaCl2 dihydrate: 82.5 mg/L • MgCl2 hexahydrate: 94.1 mg/L • ZnSO4: 10 μM • Adjust pH of medium to 7.3 with 5 N HCl • Sterilize using a 0.22 µm filter flask

[3] = test system: A. baumannii CDC-0033 producing NDM-1, and OXA-94; experiment: as above; format: cell-based; details: Acinetobacter baumannii, read-out: Minimum Inhibitory Concentration, CDC-0033
Protocol: as §1, §2, §3, §4, §5

A. baumannii ATCC 19606 = experiment: as above; format: cell-based; details: Acinetobacter baumannii, ATCC19606, read-out: Minimum Inhibitory Concentration, ATCC 19606
Protocol: as §1, §2, §3, §4, §5

P. aeruginosa CDC-0110 = experiment: as above; format: cell-based; details: Pseudomonas aeruginosa, CDC0110, read-out: Minimum Inhibitory Concentration, P. aeruginosa CDC-0110
Protocol: as §2, §3, §4, §5

SMILES: CCN1CCN(C(=O)NC(C(=O)N[C@H]2Cc3cccc(C(=O)O)c3OB2O)c2cccc(N)c2)C(=O)C1=O (stereo partly drawn) [Example 72, (3R)-3-(2-(3-aminophenyl)-2-(4-ethyl-2,3-dioxopiperazine-1-carboxamido)acetamido)-2-hydroxy-3,4-dihydro-2H-benzo[e][1,2]oxaborinine-8-carboxylic acid]
- EC50 (N. gonorrhoeae PBP2): < 10 µM

SMILES: NCCCN1CCN(C(=O)N[C@@H](C(=O)N[C@H]2Cc3ccc(F)c(C(=O)O)c3OB2O)c2c(F)cc(O)c(O)c2F)C(=O)C1=O (single isomer, unassigned) [Example 41]
- MIC [1]: 0.5 to 1 µg/mL (≈ 0.802 to 1.6 µM)
- MIC [2]: 2 to 4 µg/mL (≈ 3.21 to 6.42 µM)
- MIC [3]: 2 to 4 µg/mL (≈ 3.21 to 6.42 µM)
- MIC (A. baumannii ATCC 19606): 0.5 to 1 µg/mL (≈ 0.802 to 1.6 µM)
- MIC (P. aeruginosa CDC-0110): 2 to 4 µg/mL (≈ 3.21 to 6.42 µM)

SMILES: NCCN1CCN(C(=O)N[C@@H](C(=O)N[C@H]2Cc3ccc(F)c(C(=O)O)c3OB2O)c2c(F)cc(O)c(O)c2Cl)C(=O)C1=O (single isomer, unassigned) [Example 26]
- MIC [1]: 0.5 to 1 µg/mL (≈ 0.799 to 1.6 µM)
- MIC [2]: 8 to 16 µg/mL (≈ 12.8 to 25.6 µM)
- MIC [3]: 2 to 4 µg/mL (≈ 3.2 to 6.39 µM)
- MIC (A. baumannii ATCC 19606): 0.5 to 1 µg/mL (≈ 0.799 to 1.6 µM)
- MIC (P. aeruginosa CDC-0110): 0.5 to 1 µg/mL (≈ 0.799 to 1.6 µM)

SMILES: NCCN1CCN(C(=O)N[C@H](C(=O)N[C@H]2Cc3cccc(C(=O)O)c3OB2O)c2ccc(C(=O)O)cc2)C(=O)C1=O (single isomer, unassigned) [Example 83]
- EC50 (N. gonorrhoeae PBP2): < 10 µM

SMILES: NCCN1CCN(C(=O)N[C@H](C(=O)N[C@H]2Cc3cccc(C(=O)O)c3OB2O)c2ccc(O)cc2Cl)C(=O)C1=O (single isomer, unassigned) [Example 85]
- EC50 (N. gonorrhoeae PBP2): 10 to 30 µM

SMILES: CCN1CCN(C(=O)N[C@@H](C(=O)N[C@H]2Cc3cccc(C(=O)O)c3OB2O)c2cc(Cl)c(O)cc2Cl)C(=O)C1=O (single isomer, unassigned) [Example 91]
- EC50 (N. gonorrhoeae PBP2): < 10 µM

SMILES: CCN1CCN(C(=O)NC(C(=O)N[C@H]2Cc3ccc(F)c(C(=O)O)c3OB2O)c2cc(F)c(O)c(O)c2Cl)C(=O)C1=O (stereo partly drawn) [Example 42, (3R)-3-(2-(2-chloro-5-fluoro-3,4-dihydroxyphenyl)-2-(4-ethyl-2,3-dioxopiperazine-1-carboxamido)acetamido)-7-fluoro-2-hydroxy-3,4-dihydro-2H-benzo[e][1,2]oxaborinine-8-carboxylic acid]
- MIC [1]: 0.25 µg/mL (≈ 0.409 µM)
- MIC [2]: 0.5 to 1 µg/mL (≈ 0.819 to 1.64 µM)
- MIC [3]: 0.5 to 1 µg/mL (≈ 0.819 to 1.64 µM)
- MIC (A. baumannii ATCC 19606): 0.25 µg/mL (≈ 0.409 µM)
- MIC (P. aeruginosa CDC-0110): 0.25 µg/mL (≈ 0.409 µM)

SMILES: CCN1CCN(C(=O)NC(C(=O)N[C@H]2Cc3cccc(C(=O)O)c3OB2O)c2cccc(O)c2)C(=O)C1=O (stereo partly drawn) [Example 68, (3R)-3-(2-(4-ethyl-2,3-dioxopiperazine-1-carboxamido)-2-(3-hydroxyphenyl)acetamido)-2-hydroxy-3,4-dihydro-2H-benzo[e][1,2]oxaborinine-8-carboxylic acid]
- EC50 (N. gonorrhoeae PBP2): < 10 µM

SMILES: CCN1CCN(C(=O)N[C@@H](C(=O)N[C@H]2Cc3cccc(C(=O)O)c3OB2O)c2cc(O)cc(O)c2)C(=O)C1=O (single isomer, unassigned) [Example 82]
- EC50 (N. gonorrhoeae PBP2): < 10 µM

SMILES: CCN1CCN(C(=O)N[C@H](C(=O)N[C@H]2Cc3cccc(C(=O)O)c3OB2O)c2cc(Cl)c(O)cc2Cl)C(=O)C1=O (single isomer, unassigned) [Example 92]
- EC50 (N. gonorrhoeae PBP2): < 10 µM

SMILES: NCCN1CCN(C(=O)NC(C(=O)N[C@H]2Cc3cccc(C(=O)O)c3OB2O)c2c(F)cc(O)cc2Cl)C(=O)C1=O (stereo partly drawn) [Example 94, (3R)-3-(2-(4-(2-aminoethyl)-2,3-dioxopiperazine-1-carboxamido)-2-(2-chloro-6-fluoro-4-hydroxyphenyl)acetamido)-2-hydroxy-3,4-dihydro-2H-benzo[e][1,2]oxaborinine-8-carboxylic acid]
- EC50 (N. gonorrhoeae PBP2): < 10 µM

SMILES: CCN1CCN(C(=O)NC(C(=O)N[C@H]2Cc3cccc(C(=O)O)c3OB2O)c2ccc(C(=O)O)c(F)c2)C(=O)C1=O (stereo partly drawn) [Example 31, (3R)-3-(2-(4-carboxy-3-fluorophenyl)-2-(4-ethyl-2,3-dioxopiperazine-1-carboxamido)acetamido)-2-hydroxy-3,4-dihydro-2H-benzo[e][1,2]oxaborinine-8-carboxylic acid]
- EC50 (N. gonorrhoeae PBP2): < 10 µM

SMILES: CCN1CCN(C(=O)NC(C(=O)N[C@H]2Cc3cccc(C(=O)O)c3OB2O)c2c(F)cc(O)cc2Cl)C(=O)C1=O (stereo partly drawn) [Example 95, (3R)-3-(2-(2-chloro-6-fluoro-4-hydroxyphenyl)-2-(4-ethyl-2,3-dioxopiperazine-1-carboxamido)acetamido)-2-hydroxy-3,4-dihydro-2H-benzo[e][1,2]oxaborinine-8-carboxylic acid]
- EC50 (N. gonorrhoeae PBP2): < 10 µM

SMILES: O=C(O)c1ccc(C(NC(=O)N2CCN(CCNC(=O)c3ccc(O)c(O)c3Cl)C(=O)C2=O)C(=O)N[C@H]2Cc3ccc(F)c(C(=O)O)c3OB2O)cc1F (stereo partly drawn) [Example 11, (3R)-3-(2-(4-carboxy-3-fluorophenyl)-2-(4-(2-(2-chloro-3,4-dihydroxybenzamido)ethyl)-2,3-dioxopiperazine-1-carboxamido)acetamido)-7-fluoro-2-hydroxy-3,4-dihydro-2H-benzo[e][1,2]oxaborinine-8-carboxylic acid]
- MIC (A. baumannii ATCC 19606): > 128 µg/mL

SMILES: CCN1CCN(C(=O)NC(C(=O)N[C@H]2Cc3cccc(C(=O)O)c3OB2O)c2ccc(C(N)=O)c(O)c2)C(=O)C1=O (stereo partly drawn) [Example 45, (3R)-3-(2-(4-carbamoyl-3-hydroxyphenyl)-2-(4-ethyl-2,3-dioxopiperazine-1-carboxamido)acetamido)-2-hydroxy-3,4-dihydro-2H-benzo[e][1,2]oxaborinine-8-carboxylic acid]
- EC50 (N. gonorrhoeae PBP2): < 10 µM

SMILES: NCCN1CCN(C(=O)N[C@@H](C(=O)N[C@H]2Cc3cccc(C(=O)O)c3OB2O)c2ccc(C(=O)O)cc2)C(=O)C1=O (single isomer, unassigned) [Example 84]
- EC50 (N. gonorrhoeae PBP2): < 10 µM
